# System: U87 tumor
# Assay: PET imaging and tissue biodistribution in U87 tumor-bearing mice
# Assay type: in vivo, mouse
# Description: Cell uptake assays, flow cytometry, and IHC were performed as described previously. Banerjee et al., 2019; Nimmagadda et al., 2018. PET imaging and biodistribution Sequential PET imaging and biodistribution studies were conducted to quantify and validate PET imaging data. Briefly, tumor-bearing mice were administrated approximately 7.4 MBq of radiotracer in 150 μL saline via tail-vein injection. They were randomized into the indicated groups of 3-4 mice before radiotracer injection.
# In Experiment 1, bilateral xenografts of U87 (right flank) and PSMA+ PC3 PIP (left flank) tumors were established in male NSG mice (n=3), which underwent imaging followed by biodistribution over 24 h. […] A biodistribution study was further conducted with U87 tumors at 2 h post-injection (n=3) to compare the tissue distribution properties of ^64Cu-FP-L1 and ^64Cu-FAPI-04.
# [1] = 2 h Nude mice (n = 4), in %ID/g
# [2] = 4 h, NSG mice, U87 tumor, in %ID/g
# [3] = 24 h, NSG mice, U87 tumor, in %ID/g
# [4] = U87 in NSG mice, 20 μCi, n=3, G2/G3 and FAPI-04, in %ID/g
# [5] = male NSG mice bearing U87 xenografts, 2 h, n=3-4
smiles,measurement,setting,value
"N#C[C@@H]1CCCN1C(=O)CNC(=O)c1ccnc2ccc(OCCCNC(=O)CCc3cn(CCOCCOCCOCCC(=O)N[C@@H](CCCCNC(=O)CN4CCN(CC(=O)O)CCN(CC(=O)O)CC4)C(=O)NCCCCC(=O)N(CCCC[C@H](NC(=O)N[C@@H](CCC(=O)O)C(=O)O)C(=O)O)Cc4ccc(Br)cc4)nn3)cc12 [^64Cu-FP-L1, metal not drawn]",Biodistribution: Pancreas,[1],5.04 ± 0.36
same,Biodistribution: Sal.gl,[1],5.60 ± 0.94
same,Biodistribution: Sm.in,[1],4.33 ± 1.13
same,Biodistribution: Spleen,[1],1.88 ± 0.35
same,Biodistribution: Stomach,[1],2.02 ± 0.22
same,Biodistribution: Tumor,[1],7.25 ± 1.24
same,Biodistribution: Bladder,[2],1.72 ± 0.33
same,Biodistribution: Blood,[2],3.91 ± 0.73
same,Biodistribution: Bone,[2],2.39 ± 0.37
same,Biodistribution: Fat,[2],0.53 ± 0.10
same,Biodistribution: Heart,[2],2.13 ± 0.17
same,Biodistribution: Kidney,[2],16.57 ± 2.68
same,Biodistribution: Lac.gl,[2],3.72 ± 0.72
same,Biodistribution: Liver,[2],5.52 ± 0.39
same,Biodistribution: Lung,[2],3.31 ± 0.26
same,Biodistribution: Muscle,[2],1.08 ± 0.10
same,Biodistribution: Pancreas,[2],3.19 ± 0.11
same,Biodistribution: Sal.gl,[2],4.80 ± 0.82
same,Biodistribution: Sm.in,[2],4.26 ± 0.33
same,Biodistribution: Spleen,[2],2.05 ± 0.13
same,Biodistribution: Stomach,[2],2.02 ± 0.30
same,Biodistribution: Tumor,[2],13.81 ± 1.78
same,"Tumor uptake, FAP+ U87 tumor","4 h, bilateral U87 / PSMA+ PC3 PIP model",19.05±5.89 % ID/g
same,Biodistribution: Bladder,[3],0.57 ± 0.13
same,Biodistribution: Blood,[3],0.91 ± 0.23
same,Biodistribution: Bone,[3],0.48 ± 0.08
same,Biodistribution: Fat,[3],0.23 ± 0.10
same,Biodistribution: Heart,[3],1.19 ± 0.34
same,Biodistribution: Kidney,[3],2.45 ± 0.32
same,Biodistribution: Lac.gl,[3],0.87 ± 0.14
same,Biodistribution: Liver,[3],4.21 ± 1.00
same,Biodistribution: Lung,[3],2.07 ± 0.40
same,Biodistribution: Muscle,[3],0.23 ± 0.04
same,Biodistribution: Pancreas,[3],0.72 ± 0.15
same,Biodistribution: Sal.gl,[3],0.92 ± 0.14
same,Biodistribution: Sm.in,[3],2.16 ± 0.29
same,Biodistribution: Spleen,[3],1.67 ± 0.32
same,Biodistribution: Stomach,[3],1.27 ± 0.14
same,Biodistribution: Tumor,[3],3.25 ± 0.05
same,"Tumor uptake, FAP+ U87 tumor","24 h, bilateral U87 / PSMA+ PC3 PIP model",4.31±0.75 % ID/g
same,Biodistribution: Bladder,[4],6.81 ± 3.65
same,Biodistribution: Blood,[4],2.29 ± 0.17
same,Biodistribution: Bone,[4],3.32 ± 0.74
same,Biodistribution: Fat,[4],1.03 ± 0.39
same,Biodistribution: Heart,[4],1.58 ± 0.17
same,Biodistribution: Kidney,[4],9.05 ± 0.88
same,Biodistribution: Lacrimal,[4],3.32 ± 0.36
same,Biodistribution: Liver,[4],4.27 ± 0.53
same,Biodistribution: Lung,[4],2.71 ± 0.40
same,Biodistribution: Muscle,[4],1.52 ± 0.20
same,Biodistribution: Pancreas,[4],1.02 ± 0.72
same,Biodistribution: Salivary,[4],4.64 ± 0.26
same,Biodistribution: Sm. Intest.,[4],3.01 ± 0.08
same,Biodistribution: Spleen,[4],1.83 ± 0.14
same,Biodistribution: Stomach,[4],2.17 ± 0.12
same,Biodistribution: U87,[4],7.79 ± 1.12
same,Bone uptake,bilateral U87 / PSMA+ PC3 PIP model,> 1 % ID/g
same,Biodistribution: Bladder,[5],6.16 ± 4.37 % ID/g
same,Biodistribution: Blood,[5],1.87 ± 0.24 % ID/g
same,Biodistribution: Bone,[5],2.02 ± 0.79 % ID/g
same,Biodistribution: Fat,[5],0.35 ± 0.20 % ID/g
same,Biodistribution: Heart,[5],1.36 ± 0.28 % ID/g
same,Biodistribution: Kidney,[5],7.26 ± 2.83 % ID/g
same,Biodistribution: Lacrimal glands,[5],4.74 ± 1.57 % ID/g
same,Biodistribution: Liver,[5],4.05 ± 0.53 % ID/g
same,Biodistribution: Lung,[5],2.80 ± 0.68 % ID/g
same,Biodistribution: Muscle,[5],1.11 ± 0.23 % ID/g
same,Biodistribution: Pancreas,[5],0.99 ± 0.18 % ID/g
same,Biodistribution: Salivary Glands,[5],3.10 ± 0.51 % ID/g
same,Biodistribution: Sm. Intestine,[5],2.32 ± 0.79 % ID/g
same,Biodistribution: Spleen,[5],1.39 ± 0.10 % ID/g
same,Biodistribution: Stomach,[5],1.89 ± 0.10 % ID/g
same,Biodistribution: U87,[5],10.83 ± 1.02 % ID/g
